Literature values in patent US20070154533A1, “Method of increasing testosterone and related steriod concentrations in women” (priority 2005, published 2007).
Read-outs that look alike come from different tables or passages of the source.

Key:
[1] = for Mean (±SD) serum free testosterone concentration: transdermal patch, 12 weeks, oophorectomized women on conjugated equine estrogens
[2] = biological target: T1, sex hormone binding globulin (Homo sapiens, UniProt P04278); settings: in women
T1 sequence (P04278 30-402): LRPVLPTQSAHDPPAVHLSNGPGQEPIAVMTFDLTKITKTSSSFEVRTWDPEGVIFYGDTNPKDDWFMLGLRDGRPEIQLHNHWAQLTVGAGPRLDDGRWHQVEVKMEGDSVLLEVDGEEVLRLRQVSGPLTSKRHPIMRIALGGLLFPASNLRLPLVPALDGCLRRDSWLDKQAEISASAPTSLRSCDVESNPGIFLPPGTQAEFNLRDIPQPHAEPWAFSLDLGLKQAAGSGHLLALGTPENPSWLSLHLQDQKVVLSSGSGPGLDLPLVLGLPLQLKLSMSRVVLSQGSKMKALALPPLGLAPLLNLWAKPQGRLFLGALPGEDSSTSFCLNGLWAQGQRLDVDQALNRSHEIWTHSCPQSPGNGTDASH

[3] = patch delivering 150 ug/day, HIV-infected women, over 12 weeks
albumin = albumin (Homo sapiens, UniProt P02768); settings: in women
albumin, sequence (P02768 25-609): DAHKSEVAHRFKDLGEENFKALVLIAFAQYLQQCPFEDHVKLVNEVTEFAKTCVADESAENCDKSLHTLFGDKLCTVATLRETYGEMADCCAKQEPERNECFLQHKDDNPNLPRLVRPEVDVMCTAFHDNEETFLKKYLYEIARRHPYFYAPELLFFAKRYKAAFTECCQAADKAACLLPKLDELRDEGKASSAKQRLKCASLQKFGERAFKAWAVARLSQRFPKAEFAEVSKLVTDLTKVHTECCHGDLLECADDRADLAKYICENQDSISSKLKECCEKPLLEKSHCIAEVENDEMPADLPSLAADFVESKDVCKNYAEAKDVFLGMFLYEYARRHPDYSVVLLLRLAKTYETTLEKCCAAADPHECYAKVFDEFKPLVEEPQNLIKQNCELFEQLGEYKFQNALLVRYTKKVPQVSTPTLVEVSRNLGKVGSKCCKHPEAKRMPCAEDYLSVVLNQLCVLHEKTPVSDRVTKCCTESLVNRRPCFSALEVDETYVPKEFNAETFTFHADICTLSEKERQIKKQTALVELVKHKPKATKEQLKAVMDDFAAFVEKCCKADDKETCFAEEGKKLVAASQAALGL

[4] = circulating testosterone

C[C@]12CC[C@H]3[C@@H](CCC4=CC(=O)CC[C@@]43C)[C@@H]1CC[C@@H]2O [Testosterone, testosterone]
Scores on the telephone-based diary ([1]; higher dose): did not increase significantly
Psychological Well-Being Index positive-well-being, depressed-mood, and composite scores ([1]; higher dose vs placebo): improved at the higher dose
Percentages of women who had sexual fantasies, masturbated, or engaged in sexual intercourse at least once a week ([1]; higher dose, vs base line): increased two to three times from base line
Brief Index of Sexual Functioning for Women scores ([1]; higher testosterone dose (300 μg per day), P=0.03 vs placebo): further increases in scores for frequency of sexual activity and pleasure-orgasm
Mean (±SD) serum free testosterone concentration ([1]; 160 μg of testosterone per day): 3.9 ± 2.4 pg/mL
Mean (±SD) serum free testosterone concentration ([1]; 300 μg of testosterone per day): 4.9 ± 4.8 pg/mL
Binding to sex hormone binding globulin [2]: approximately 65%
Increase in body weight [3]: 4%
Bound weakly to albumin (albumin): 33%
Bound to protein in the blood [4]: 98%
